In the assay the target is T1, Kv1.5 potassium channel (Homo sapiens, UniProt P22460).
T1 construct: expressed in transfected cells
Description: Whole-cell patch clamp electrophysiological recording of Kv1.5 currents in CHO cells. Type of assay: cell-based. Particulars: CHO cells stably expressing Kv1.5, whole-cell voltage clamp, holding potential −80 mV, one depolarization every 10 seconds. How it is done: Electrophysiological recordings of potassium currents in Chinese hamster ovary cells stably expressing the gene construct for the Kv1.5 potassium channel subunit were performed using the whole cell configuration of the patch clamp technique (Hamill et al., Pflugers Archiv 391:85, 1981). Cell lines expressing Kv1.5 were prepared using standard techniques known to those skilled in the art. Cells were plated on glass coverslips at a density of 2×10^4 cells/coverslip and used within 24-48 hours. Solutions used for electrophysiological recordings were as follows. Extracellular bathing solutions typically contain (in mM) 132 NaCl, 5.4 KCl, 1.8 CaCl2, 0.8 MgCl2, 10 HEPES, 5 glucose at pH 7.3. Electrode pipette solutions (intracellular solution) for measuring Kv1.5 typically contain (in mM) 100 KF, 40 KCl, 5 NaCl, 2 MgCl2, 5 EGTA, 10 HEPES and 5 glucose at pH 7.4, 295 mOsm and has a resistance of about 1-2 MΩ. The coverslips were placed in a small chamber (volume ˜200 μl) on the mechanical stage of an inverted microscope and perfused (approximately 2 ml/min) with extracellular recording solution. Drug was applied using a series of narrow-bore glass capillary tubes (inner diameter ˜100 μm) positioned approximately 200 μm from the cell.
As soon as the current recording was stable, a compound representative of the present invention was superfused over the cell until steady-state block was observed. Using this technique, the effects of the compound on peak and steady-state current were determined at progressively increasing compound concentrations.
The testing results of selected compounds from Table 2 using this assay and the techniques described above are reported in Table 3 as the percent inhibition of Kv1.5 potassium channel currents at a single concentration of 0.1 μM.

The mark [1] stands for this setting: read-out: Peak Current Inhibition at 0.1 μM (%).
Where [2] appears, read: read-out: Steady-state Current Inhibition at 0.1 μM (%).

Like-named read-outs stand apart in the source and are kept apart here.

T1 sequence (P22460 whole entry): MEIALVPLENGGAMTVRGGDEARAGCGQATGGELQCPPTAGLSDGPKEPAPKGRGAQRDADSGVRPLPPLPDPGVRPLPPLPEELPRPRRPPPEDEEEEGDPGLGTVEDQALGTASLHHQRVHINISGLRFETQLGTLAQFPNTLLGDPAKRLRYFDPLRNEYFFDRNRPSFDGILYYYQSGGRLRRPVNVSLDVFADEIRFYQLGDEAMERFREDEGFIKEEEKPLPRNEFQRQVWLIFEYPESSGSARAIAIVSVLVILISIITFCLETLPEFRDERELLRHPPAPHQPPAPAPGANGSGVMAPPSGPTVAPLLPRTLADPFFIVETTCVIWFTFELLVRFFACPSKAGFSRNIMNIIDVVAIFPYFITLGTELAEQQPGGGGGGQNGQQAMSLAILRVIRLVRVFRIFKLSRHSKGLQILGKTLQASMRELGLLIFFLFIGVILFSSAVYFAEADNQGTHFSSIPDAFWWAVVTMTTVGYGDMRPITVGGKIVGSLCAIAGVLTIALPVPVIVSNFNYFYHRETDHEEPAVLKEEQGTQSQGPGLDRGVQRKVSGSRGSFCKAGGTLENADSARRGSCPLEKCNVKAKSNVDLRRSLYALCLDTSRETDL

As to `Cn1ccnc1CN(C(=O)[C@@H]1C[C@H]1c1ccccc1)c1ccc2c(c1)[C@@H](NS(=O)(=O)c1ccc(Cl)cc1)CCC2` [Example 4], the inhibition at 0.1 µM runs as follows: under setting [1], 64%; under setting [2], 76%.
As to `Cc1cccc(CN(C(=O)C2CC2c2ccccc2)c2ccc3c(c2)C(NS(=O)(=O)c2ccccc2)CCC3)n1` (stereo not shown) [Example 7], the inhibition at 0.1 µM under setting [1] was found to be 43% and the inhibition at 0.1 µM under setting [2] was 68%.
With `Cn1ccnc1CN(C(=O)[C@@H]1C[C@H]1c1ccc(F)cc1)c1ccc2c(c1)[C@@H](NS(=O)(=O)c1ccc(F)cc1)CCC2` [Example 31], the inhibition at 0.1 µM was determined as 70% under setting [1] and 84% under setting [2].
With `Cc1cccc(CN(C(=O)[C@@H]2C[C@H]2c2ccccc2)c2ccc3c(c2)[C@@H](NS(=O)(=O)c2ccc(Cl)cc2)CCC3)n1` [Example 16], the inhibition at 0.1 µM runs as follows: under setting [1], 42%; under setting [2], 80%.
For the compound `CCc1ccc(S(=O)(=O)N[C@H]2CCCc3ccc(N(Cc4nccn4C)C(=O)[C@@H]4C[C@H]4c4ccc(Cl)cc4)cc32)cc1` [Example 48], the inhibition at 0.1 µM worked out at 70% under setting [1] and 95% under setting [2].
On the same counts, the results for `Cc1cccc(CN(C(=O)C2CC2c2ccccc2)c2ccc3c(c2)C(NS(=O)(=O)c2ccccc2Cl)CCC3)n1` (stereo not shown) [Example 9] are 60% and 82%.
Consider `Cn1ccnc1CN(C(=O)[C@@H]1C[C@H]1c1ccc(C(F)(F)F)cc1)c1ccc2c(c1)[C@@H](NS(=O)(=O)c1ccccc1F)CCC2` [Example 43], for which the inhibition at 0.1 µM came to 47% under setting [1] and 72% under setting [2].
As to `Cc1cccc(CN(C(=O)C2CC2c2ccccc2)c2ccc3c(c2)C(NS(=O)(=O)c2ccc(F)cc2)CCC3)n1` (stereo not shown) [Example 10], the inhibition at 0.1 µM runs as follows: under setting [1], 24%; under setting [2], 53%.
Consider `Cc1cccc(CN(C(=O)[C@@H]2C[C@H]2c2ccccc2)c2ccc3c(c2)[C@@H](NS(=O)(=O)c2cccc(Cl)c2)CCC3)n1` [Example 14], for which the inhibition at 0.1 µM under setting [1] turned out to be 42% and the inhibition at 0.1 µM under setting [2] is 81%.
The matching figures for `Cn1ccnc1CN(C(=O)[C@@H]1C[C@H]1c1ccc(F)cc1)c1ccc2c(c1)[C@@H](NS(=O)(=O)c1ccccc1F)CCC2` [Example 29]: 68% and 78%.
Consider `Cn1ccnc1CN(C(=O)[C@@H]1C[C@H]1c1ccc(F)cc1)c1ccc2c(c1)[C@@H](NS(=O)(=O)c1ccc(F)c(Cl)c1)CCC2` [Example 32], for which the inhibition at 0.1 µM by setting is: under setting [1], 70%; under setting [2], 91%.
In the case of `Cc1ncc(CN(C(=O)C2CC2c2ccccc2)c2ccc3c(c2)C(NS(=O)(=O)c2ccc(F)cc2)CCC3)n1CC(C)C` (stereo not shown) [Example 5], the inhibition at 0.1 µM reads like this: under setting [1], 39%; under setting [2], 50%.
As to `Cc1cccc(CN(C(=O)[C@@H]2C[C@H]2c2ccc(C(F)(F)F)cc2)c2ccc3c(c2)[C@@H](NS(=O)(=O)c2ccccc2F)CCC3)n1` [Example 39], the inhibition at 0.1 µM by setting is: under setting [1], 50%; under setting [2], 69%.
Regarding `Cn1ccnc1CN(C(=O)[C@H]1C[C@@H]1c1ccc(Cl)cc1)c1ccc2c(c1)[C@H](NS(=O)(=O)c1ccccc1)CCC2` [Example 54], the inhibition at 0.1 µM reads like this: under setting [1], 57%; under setting [2], 82%.
For the compound `Cn1ccnc1CN(C(=O)[C@H]1C[C@@H]1c1ccc(Cl)cc1)c1ccc2c(c1)[C@@H](NS(=O)(=O)c1ccc(F)cc1)CCC2` [Example 25], the inhibition at 0.1 µM is 35% under setting [1] and 69% under setting [2].
The matching figures for `Cc1cccc(CN(C(=O)[C@@H]2C[C@H]2c2ccccc2)c2ccc3c(c2)[C@@H](NS(=O)(=O)c2ccccc2)CCC3)n1` [Example 12]: 57% and 96%.
The matching figures for `Cc1cccc(CN(C(=O)[C@@H]2C[C@H]2c2ccccc2)c2ccc3c(c2)[C@@H](NS(=O)(=O)c2ccc(F)cc2)CCC3)n1` [Example 13]: 45% and 82%.
The matching figures for `Cn1ccnc1CN(C(=O)[C@@H]1C[C@H]1c1ccc(F)cc1)c1ccc2c(c1)[C@@H](NS(=O)(=O)c1cccc(F)c1)CCC2` [Example 30]: 80% and 93%.
Take `Cn1ccnc1CN(C(=O)[C@@H]1C[C@H]1c1ccccc1)c1ccc2c(c1)[C@@H](NS(=O)(=O)c1ccccc1)CCC2` [Example 6]: the inhibition at 0.1 µM worked out at 72% under setting [1] and 78% under setting [2].
The matching figures for `Cn1ccnc1CN(C(=O)[C@@H]1C[C@H]1c1ccc(Cl)cc1)c1ccc2c(c1)[C@@H](NS(=O)(=O)c1ccccc1)CCC2` [Example 44]: 71% and 92%.

Values taken from patent US6620849B2, “Potassium channel inhibitors” (ICAFEN, Inc., priority 2000, dated 2003).
